Series [1] in a line: LD50 test (acute oral toxicity). Particulars: in vivo.
Series [2] relates to rabbits. The series is described as follows: Acute eye irritation (OECD guideline No. 405, method B.5). Particulars: 3 rabbits. Type of series: in vivo, rabbit. The protocol:
Similarly, the molecule was tested on 3 rabbits according to the experimental protocol established by “the OECD guideline No. 405 dated Apr. 24, 2002” and the test “method B.5 of the Directive No. 2004/73/EC): Acute eye irritation”.
It also emerges therefrom that 9-decen-2-one is not irritant and that no hazard symbol or phrases are required for its use (according to the “EEC Directives 67/548/59 and 99/45”).

Series [3] has as its system rabbits. The series is described as follows: Acute dermal irritation (OECD guideline No. 404, method B.4). Type of series: in vivo, rabbit. Particulars: 3 rabbits. The protocol: The molecule was tested on 3 rabbits according to the experimental protocol established by “the OECD guideline No. 404 dated Apr. 24, 2002” and the test “method B.4 of the Directive No. 2004/73/EC): Acute dermal irritation”.
It emerges therefrom that 9-decen-2-one is not irritant and that no hazard symbol or phrases are required for its use (according to the “EEC Directives 67/548/59 and 99/45”).

SMILES strings stand for the structures.

The term LD50 denotes the dose at which mortality reaches 50%. High values mean lower toxicity, low ones greater toxicity. `C=CCCCCCCC(C)=O` [9-decen-2-one] showed an LD50 in series [1] of 2500 mg/kg. Further, the Acute eye irritation entry with rabbits [2] is recorded as “not irritant”. Further, the Acute dermal irritation entry in the series with rabbits [3] is recorded as “not irritant”.

The values above are taken from patent US8481789B2, “Method for producing natural 9-decen-2-one by bioconverting undecylenic acid using a mold, and use in the perfume and food flavoring fields” (priority 2008, dated 2013).
